pIC50, pKi: −log10 of the molar value. Where only a bound is given, the exact number is not on record here.

This is an account of results in US20200016159A1, “N3-CYCLICALLY SUBSTITUTED THIENOURACILS AND USE THEREOF” (Bayer Aktiengesellschaft, priority 2016, published 2020).

For data set [1], the target named is T1, human adenosine A3 receptor (Homo sapiens, UniProt P0DMS8).
T1 construct: expressed in transfected cells; host or cells: HEK293
T1 sequence (P0DMS8 1-318): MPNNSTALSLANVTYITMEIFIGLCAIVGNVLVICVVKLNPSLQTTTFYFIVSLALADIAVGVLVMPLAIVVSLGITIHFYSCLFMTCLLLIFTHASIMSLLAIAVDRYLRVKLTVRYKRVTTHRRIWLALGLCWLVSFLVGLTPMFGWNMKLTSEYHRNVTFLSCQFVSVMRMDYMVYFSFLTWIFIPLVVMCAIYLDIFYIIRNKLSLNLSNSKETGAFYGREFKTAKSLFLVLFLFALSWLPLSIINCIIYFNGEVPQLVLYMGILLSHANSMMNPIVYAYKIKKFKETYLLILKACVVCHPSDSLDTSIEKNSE
Nature of the data set: Adenosine receptor radioligand binding assay, A3 receptor ([125I]-AB-MECA, HEK293 membranes). As to conditions: membrane preparations of HEK293 cells, radioligand [125I]-AB-MECA. Here is the method:
(§1) The binding properties of the test compounds on adenosine receptors were determined in binding studies with radioligands. For this purpose, membrane preparations of the human adenosine receptor subtypes were produced from cell lines having recombinant receptor expression (CHO cells for the A1 receptor, HEK293 cells for the A2a, A2b and A3 receptors). The following radioligands were used in the experiments: [^3H]-DPCPX for the A1 receptor, [^3H]-CGS 21680 for the A2a receptor, [^3H]-CPX for the A2b receptor and [^125I]-AB-MECA for the A3 receptor. The test substances were each tested in 8 different concentrations and 2 repeat tests per concentration. The displacement of the particular radioligand by the test compound was expressed as percentage inhibition of the specific binding of the controls.
(§2) The IC50 values (concentration which brings about half-maximum inhibition of the specific binding of the controls) and the Hill coefficients (nH) were determined by a non-linear regression analysis, using the competition curves obtained from the mean values of the repeat tests and conducting a curve fit according to the Hill equation:
(§3) (Y=specific binding; A=left-hand asymptote of the curve; D=right-hand asymptote of the curve; C=substance concentration; C50=IC50; nH=rise factor).
(§4) The inhibition constant (Ki) was calculated by the Cheng-Prusoff equation:
(§5) (L=concentration of the radioligand in the assay; KD=receptor affinity of the radioligand for the receptor, determined with a Scatchard plot).
(§6) [Literature: A1 receptor: Townsend-Nicholson, A. und Schofield, P. R., J. Biol. Chem. 269: 2373-2376 (1994); A2a receptor: Luthin, D. R. et al., Mol. Pharmacol. 47: 307-313 (1995); A2b receptor: Stehle, J. H. et al., Mol. Endocrinol. 6: 384-393 (1992) and Linden et al., Mol. Pharmacol. 56: 705-713 (1999); A3 receptor: Salvatore, C. A. et al., Proc. Natl. Acad. Sci. U.S.A. 90: 10365-10369 (1993) and Jacobson, K. A. et al., Neuropharmacology 36: 1157-1165 (1997)].
(§7) Table 2 below lists the K1 values thus determined from these binding assays for representative working examples (in some cases as means of a plurality of independent individual determinations and rounded to two significant figures; it may also be the case here that various independent preparations of the respective working example have been used): […]

Data set [2] concerns IL-6 release by LL29 fibroblasts. The experiment in a line: NECA-induced IL-6 release by LL29 fibroblasts. The class given is cell-based. As to conditions: Homo sapiens, Fibroblast; LL29 cells stimulated with NECA (10 μM), 24 hours, IL-6 ELISA of supernatant. Here is the method: Stimulation of fibroblasts with adenosine or the adenosine analog 5′-N-ethylcarboxamidoadenosine (NECA) leads to release of the pro-inflammatory and pro-fibrotic cytokine IL-6 which can be prevented by inhibition of the A2b receptor.
Accordingly, confluent cells of the human fibroblast cell line LL29 were treated with the test substances and stimulated with NECA (10 μM). After an incubation time of 24 hours, the cell supernatant is removed and human IL-6 in the cell supernatant is determined by ELISA (Quantikine® IL6 ELISA, R&D Systems, Minneapolis, USA).
Table 3 below lists the IC50 values obtained in this way for inhibition of IL-6 release for representative working examples (in some cases as means of a plurality of independent individual determinations and rounded to two significant figures; it may also be the case here that various independent preparations of the respective working example have been used): […]
A general note: An ELISA detects its analyte on a solid surface through an enzyme-linked reagent.

For data set [3], the target named is T2, human adenosine A2b receptor (Homo sapiens, UniProt P29275).
T2 sequence (P29275 1-332): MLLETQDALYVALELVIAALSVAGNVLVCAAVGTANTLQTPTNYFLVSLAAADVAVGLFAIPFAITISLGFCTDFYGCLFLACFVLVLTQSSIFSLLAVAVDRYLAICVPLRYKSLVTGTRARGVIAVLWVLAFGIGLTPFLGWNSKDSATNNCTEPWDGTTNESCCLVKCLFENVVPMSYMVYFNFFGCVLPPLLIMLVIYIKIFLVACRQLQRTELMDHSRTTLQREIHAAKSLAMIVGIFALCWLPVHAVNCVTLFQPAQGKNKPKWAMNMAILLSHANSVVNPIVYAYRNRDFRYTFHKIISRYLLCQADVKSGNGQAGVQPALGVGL
The experiment in a line: Cellular in vitro reporter gene test for A2b receptor activity (antagonism of NECA). Also on record: expressed in transfected cells; host or cells: CHO-K1 (Chinese hamster ovary) with CRE-luciferase reporter. In kind it is cell-based. The settings on record: recombinant CHO-K1 cells, CRE-luciferase reporter, co-incubation with EC50 concentration of NECA, 3 hours. The procedure, abridged: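 CHO-K1 cells expressing recombinant human A2b receptor plus a CRE-driven firefly luciferase reporter. Compounds co-incubated with NECA at its same-day EC50 concentration; luminescence read 3 hours after NECA addition. IC50 values, sometimes means of several determinations rounded to two significant figures.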

Data set [4] concerns the target T2, human adenosine A2b receptor. Nature of the data set: Adenosine receptor radioligand binding assay, A2b receptor ([3H]-CPX, HEK293 membranes). Also on record: expressed in transfected cells. The settings on record: membrane preparations of HEK293 cells, radioligand [3H]-CPX. Here is the method:
as §1, §2, §3, §4, §5, §6, §7

For data set [5], the target named is T3, human adenosine A2a receptor (Homo sapiens, UniProt P29274).
T3 construct: expressed in transfected cells; host or cells: HEK293
T3 sequence (P29274 whole entry): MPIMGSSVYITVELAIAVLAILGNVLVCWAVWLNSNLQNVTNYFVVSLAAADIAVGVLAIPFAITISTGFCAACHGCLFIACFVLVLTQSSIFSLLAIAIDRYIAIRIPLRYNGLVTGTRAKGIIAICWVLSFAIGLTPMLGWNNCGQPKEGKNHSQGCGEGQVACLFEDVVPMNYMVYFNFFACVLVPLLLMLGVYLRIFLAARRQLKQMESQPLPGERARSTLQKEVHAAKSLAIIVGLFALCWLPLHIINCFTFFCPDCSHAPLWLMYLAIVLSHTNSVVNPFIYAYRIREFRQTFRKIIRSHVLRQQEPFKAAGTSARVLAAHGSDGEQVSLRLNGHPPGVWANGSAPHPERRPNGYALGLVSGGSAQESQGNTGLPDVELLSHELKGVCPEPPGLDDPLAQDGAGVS
The experiment in a line: Adenosine receptor radioligand binding assay, A2a receptor ([3H]-CGS 21680, HEK293 membranes). The settings on record: membrane preparations of HEK293 cells, radioligand [3H]-CGS 21680. Here is the method:
as §1, §2, §3, §4, §5, §6, §7

Data set [6] addresses T4, human adenosine A1 receptor (Homo sapiens, UniProt P30542).
T4 construct: expressed in transfected cells; host or cells: CHO
T4 sequence (P30542 1-326): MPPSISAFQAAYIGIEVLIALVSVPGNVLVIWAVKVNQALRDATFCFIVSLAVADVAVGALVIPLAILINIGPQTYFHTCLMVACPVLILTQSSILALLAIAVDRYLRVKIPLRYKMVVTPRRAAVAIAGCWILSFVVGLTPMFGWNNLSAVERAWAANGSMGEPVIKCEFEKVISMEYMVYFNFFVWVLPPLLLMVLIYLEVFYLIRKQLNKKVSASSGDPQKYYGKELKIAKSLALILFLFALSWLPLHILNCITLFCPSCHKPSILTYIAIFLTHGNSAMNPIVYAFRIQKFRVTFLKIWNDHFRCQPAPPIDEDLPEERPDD
The experiment in a line: Adenosine receptor radioligand binding assay, A1 receptor ([3H]-DPCPX, CHO membranes). As to conditions: membrane preparations of CHO cells, radioligand [3H]-DPCPX. Here is the method: as §1, §2, §3, §4, §5, §6, §7

The subject of the next data set is colon cancer cell lines. As to conditions: inhibition of the A2b receptor-mediated adenosine signalling pathway; cited from earlier work.
The test system of data set [7] is prostate cancer cell lines. As to conditions: cited from earlier work.
For a further data set, the system named is melanoma animal models. The settings on record: cited from earlier work.
The subject of data set [8] is bladder tumours and breast tumours. As to conditions: animal models of bladder tumours and breast tumours; cited from earlier work.

With `COCCn1c(=O)n(C2CC2C)c(=O)c2c(C)c(CN3CCNC3=O)sc21` (single isomer, unassigned) [Example 96, 1-(2-Methoxyethyl)-5-methyl-3-(2-methylcyclopropyl)-6-[(2-oxoimidazolidin-1-yl)methyl]thieno[2,3-d]pyrimidine-2,4(1H,3H)-dione], the pKi in data set [1] is 5.43; in data set [4], 8.43; in data set [5] it was 6.32; in data set [6], 5.47. Besides, the pIC50 in data set [2] was 8.31; in data set [3], 8.42.

On to `COCCn1c(=O)n([C@H]2C[C@@H]2C)c(=O)c2c(C)c(CN3CCNC3=O)sc21` [Example 315, 1-(2-Methoxyethyl)-5-methyl-3-[(1S,2S)-2-methylcyclopropyl]-6-[(2-oxoimidazolidin-1-yl)methyl]thieno[2,3-d]pyrimidine-2,4(1H,3H)-dione], for which the negative logarithm of the Ki (pKi) in data set [1] was 5.43; in data set [4], 8.43; in data set [5], 6.32; in [6], 5.47. For the same compound, the pIC50 was 8.31 in data set [2] and 8.42 in [3].

As to `Cc1c(Cn2nc[nH]c2=O)sc2c1c(=O)n(C1CC1)c(=O)n2CCC(F)(F)F` [Example 15, 3-Cyclopropyl-5-methyl-6-[(5-oxo-4,5-dihydro-1H-1,2,4-triazol-1-yl)methyl]-1-(3,3,3-trifluoropropyl)thieno[2,3-d]pyrimidine-2,4(1H,3H)-dione], the pKi was < 5.00 in [1], 8.44 in data set [4], 5.52 in data set [5] and 5.10 in data set [6]. Also, the pIC50 in [3] was 7.85.

As to `CCCn1c(=O)c2[nH]c(-c3ccc(OCC(=O)Nc4ccc(C#N)cc4)cc3)nc2n(CCC)c1=O` [MRS1754], the “growth of colon cancer cell lines” value in the data set on colon cancer cell lines is listed as “reduced growth”.

As for `Cc1c(Cn2nc[nH]c2=O)sc2c1c(=O)n(C1CC1)c(=O)n2CCOC(F)(F)F` [Example 36, 3-Cyclopropyl-5-methyl-6-[(5-oxo-4,5-dihydro-1H-1,2,4-triazol-1-yl)methyl]-1-[2-(trifluoromethoxy)ethyl]thieno[2,3-d]pyrimidine-2,4(1H,3H)-dione], the melting point was found to be 199 °C. Besides, the pKi in data set [1] is < 4.30. This compound showed a pIC50 in [2] of 8.21. In addition, the pIC50 in [3] is 8.36. In [4], this compound had a pKi of 8.59. In data set [5], this compound gave a pKi of 6.02. Moreover, the pKi in [6] is 5.59.

With `CCCn1c(=O)[nH]c2nc(-c3ccc(S(=O)(=O)N4CCN(c5ccc(Cl)cc5)CC4)cc3)[nH]c2c1=O` [PSB603], the “growth of several prostate cancer cell lines” value in [7] is listed as “reduces the growth”. Moreover, the “tumour growth and metastasis” value with melanoma animal models was “reduction in tumour growth and metastasis”.

As for `CCCn1c(=O)n(C2CC2)c(=O)c2[nH]c(-c3ccc(N(CC)C(=O)c4cccnc4)nc3)nc21` [ATL801], in [8], the “interferon γ level” value is on record as “significant increase”, the metastasis result is given as “distinct reduction in metastasis”, the “number of tumour antigen-presenting dendritic cells” value was “increase” and the tumour growth result was “slowing of tumour growth”.

As for `Cc1c(CN2CCNC2=O)sc2c1c(=O)n(C1CC1)c(=O)n2CCCF` [Example 5, 3-Cyclopropyl-1-(3-fluoropropyl)-5-methyl-6-[(2-oxoimidazolidin-1-yl)methyl]thieno[2,3-d]pyrimidine-2,4(1H,3H)-dione], the pIC50 was 7.68 in [2] and 7.92 in data set [3].

Take `COCCn1c(=O)n(C2(C)CC2)c(=O)c2c(C)c(CN3CCNC3=O)sc21` [Example 70, 1-(2-Methoxyethyl)-5-methyl-3-(1-methylcyclopropyl)-6-[(2-oxoimidazolidin-1-yl)methyl]thieno[2,3-d]pyrimidine-2,4(1H,3H)-dione]: the negative logarithm of the Ki (pKi) in data set [1] was < 5.00; in data set [4] it was 8.24; in data set [5] it was 5.32; in data set [6], < 5.00. For the same compound, the pIC50 in data set [3] is 7.82.

The pKi is −log10 of the Ki, conventionally taken in molar units. A lower pKi goes with a high Ki. What is called pIC50 is the negative decadic logarithm of the IC50, by convention in mol/L. The term melting point denotes the temperature, or range, at which the solid turns liquid.
